Assay results reported in ChEMBL document CHEMBL5365531, “Structure-Activity Relationship Studies of SARS-CoV-2 Main Protease Inhibitors Containing 4-Fluorobenzothiazole-2-carbonyl Moieties” (J Med Chem, 2023).

What was measured:
[1] = test system: MOLT-4; assay: Cytotoxicity against human MOLT-4 cells assessed as reduction in cell viability at 10 uM incubated for 12 days by CCK-8 assay; format: toxicity, cell-based; settings: molt-4, 288 h, time 12 day
[2] = test system: SARS-CoV-2; assay: Antiviral activity against SARS-CoV-2 infected in Vero E6 cells preincubated with cells for 1 day in presence of HCl treated compound followed by viral infection and measured after 3 days by qRT-PCR analysis; format: functional, organism-based; settings: Severe acute respiratory syndrome coronavirus 2, Vero C1008
[3] = Mutagenicity in Escherichia coli WP2uvrA assessed as inhibition of bacterial growth at 0.152 to 333 ug incubated in presence of S9 fraction by micro-Ames test; format: toxicity, subcellular; settings: dose 0.152-333 µg
[4] = Mutagenicity in Salmonella typhimurium TA1535 assessed as inhibition of bacterial growth at 0.152 to 333 ug incubated in absence of S9 fraction by micro-Ames test; format: toxicity, Salmonella enterica subsp. enterica serovar Typhimurium; settings: in vivo; dose 0.152-333 µg
[5] = Mutagenicity in Salmonella typhimurium TA100 assessed as inhibition of bacterial growth at 0.152 to 333 ug incubated in presence of S9 fraction by micro-Ames test; format: toxicity, subcellular, Salmonella enterica subsp. enterica serovar Typhimurium; settings: dose 0.152-333 µg
[6] = test system: MT2; assay: Cytotoxicity against human MT2 cells assessed as reduction in cell viability at 10 uM incubated for 12 days by CCK-8 assay; format: toxicity, cell-based; settings: mt2, 288 h, time 12 day
[7] = Mutagenicity in Salmonella typhimurium TA98 assessed as inhibition of bacterial growth at 0.152 to 333 ug incubated in absence of S9 fraction by micro-Ames test; format: toxicity, Salmonella enterica subsp. enterica serovar Typhimurium; settings: in vivo; dose 0.152-333 µg
[8] = test system: SARS-CoV-2; assay: Antiviral activity against SARS-CoV-2 infected in Vero E6 cells preincubated with cells for 1 day in absence of HCl followed by viral infection and measured after 3 days by qRT-PCR analysis; format: functional, organism-based; settings: Severe acute respiratory syndrome coronavirus 2, Vero C1008
[9] = Mutagenicity in Escherichia coli WP2uvrA assessed as inhibition of bacterial growth at 0.152 to 333 ug incubated in absence of S9 fraction by micro-Ames test; format: toxicity; settings: in vivo; dose 0.152-333 µg
[10] = test system: PBMC; assay: Cytotoxicity against human PBMC cells assessed as reduction in cell viability at 10 uM incubated for 12 days by CCK-8 assay; format: toxicity, cell-based; settings: 288 h, time 12 day
[11] = test system: SARS-CoV-2; assay: Antiviral activity against SARS-CoV-2 hCoV-19/Japan/TKYS02037/2022 (omicron BA.2) infected in Vero E6 cells preincubated with cells for 1 day followed by viral infection and measured after 3 days by qRT-PCR analysis; format: functional, organism-based; settings: Severe acute respiratory syndrome coronavirus 2, hCoV-19/Japan/TKYS02037/2022 (omicron BA.2), Vero C1008
[12] = Cytotoxicity against African green monkey Vero E6 cells incubated for 3 days by WST-8 assay; format: toxicity, cell-based, Vero C1008; settings: chlorocebus sabaeus, time 3 day
[13] = Mutagenicity in Salmonella typhimurium TA1537 assessed as inhibition of bacterial growth at 0.152 to 333 ug incubated in absence of S9 fraction by micro-Ames test; format: toxicity, Salmonella enterica subsp. enterica serovar Typhimurium; settings: in vivo; dose 0.152-333 µg
[14] = Mutagenicity in Salmonella typhimurium TA1535 assessed as inhibition of bacterial growth at 0.152 to 333 ug incubated in presence of S9 fraction by micro-Ames test; format: toxicity, subcellular, Salmonella enterica subsp. enterica serovar Typhimurium; settings: dose 0.152-333 µg
[15] = Mutagenicity in Salmonella typhimurium TA100 assessed as inhibition of bacterial growth at 0.152 to 333 ug incubated in absence of S9 fraction by micro-Ames test; format: toxicity, Salmonella enterica subsp. enterica serovar Typhimurium; settings: in vivo; dose 0.152-333 µg
[16] = test system: SARS-CoV-2; assay: Antiviral activity against SARS-CoV-2 infected in Vero E6 cells preincubated with cells for 1 day followed by viral infection and measured after 3 days by qRT-PCR analysis; format: functional, organism-based; settings: Severe acute respiratory syndrome coronavirus 2, Vero C1008
[17] = Mutagenicity in Salmonella typhimurium TA98 assessed as inhibition of bacterial growth at 0.152 to 333 ug incubated in presence of S9 fraction by micro-Ames test; format: toxicity, subcellular, Salmonella enterica subsp. enterica serovar Typhimurium; settings: dose 0.152-333 µg
[18] = Mutagenicity in Salmonella typhimurium TA1537 assessed as inhibition of bacterial growth at 0.152 to 333 ug incubated in presence of S9 fraction by micro-Ames test; format: toxicity, subcellular, Salmonella enterica subsp. enterica serovar Typhimurium; settings: dose 0.152-333 µg
[19] = test system: Vero C1008; assay: Cytotoxicity against African green monkey Vero E6 cells infected with SARS-CoV-2 WK-521 upto 100 uM incubated for 3 days by immunostaining analysis; format: toxicity, cell-based; settings: chlorocebus sabaeus, vero c1008, 72 h, time 3 day

In the case of `CC(C)(C)[C@H](NC(=O)C(F)(F)F)C(=O)N1C[C@H]2[C@@H]([C@H]1C(=O)N[C@H](C#N)C[C@@H]1CCNC1=O)C2(C)C`, the Activity [1] is reported as “Non-Toxic”, the EC50 [2] is reported as 2500 nM and the Activity [3] is reported as “Non-Toxic”. The Activity [4] was “Non-Toxic”, the Activity [5] was “Non-Toxic” and the Activity [6] was “Non-Toxic”. For the same compound, the Activity [7] was “Non-Toxic”, the EC50 [8] was 1400 nM and the Activity [9] was “Non-Toxic”. For the same compound, the Activity [10] was “Non-Toxic”, the EC50 [11] was 1400 nM and the CC50 at 72 h [12] was greater than 100000 nM. The Activity [13] was “Non-Toxic”, the Activity [14] was “Non-Toxic” and the Activity [15] was “Non-Toxic”. For the same compound, the EC50 [16] was 1600 nM, the Activity [17] was “Non-Toxic” and the Activity [18] was “Non-Toxic”. For the same compound, the Activity [19] was “Non-Toxic”.
